Test results as given in PubChem BioAssay (NCI).
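Protocol summary: plate cells (96-well), add compound at 5 concentrations, incubate 48 h, interpolate endpoints linearly. TGI marks complete inhibition of growth.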

Columns and labels:
Assay in all cases: NCI anticancer screen, dose series, 48 h
786-0 renal = tested on: 786-0 renal
A498 renal = tested on: A498 renal
A549 NSCLC = tested on: A549 NSCLC
ACHN renal = tested on: ACHN renal
BT-549 breast = tested on: BT-549 breast
CAKI-1 renal = tested on: CAKI-1 renal
CCRF-CEM leukemia = tested on: CCRF-CEM leukemia
COLO 205 colon = tested on: COLO 205 colon
DU-145 prostate = tested on: DU-145 prostate
EKVX NSCLC = tested on: EKVX NSCLC
HCC-2998 colon = tested on: HCC-2998 colon
HCT-116 colon = tested on: HCT-116 colon
HCT-15 colon = tested on: HCT-15 colon
HL-60(TB) leukemia = tested on: HL-60(TB) leukemia
HOP-62 NSCLC = tested on: HOP-62 NSCLC
HOP-92 NSCLC = tested on: HOP-92 NSCLC
HS 578T breast = tested on: HS 578T breast
HT29 colon = tested on: HT29 colon
IGROV1 ovarian = tested on: IGROV1 ovarian
K-562 leukemia = tested on: K-562 leukemia
KM12 colon = tested on: KM12 colon
LOX IMVI melanoma = tested on: LOX IMVI melanoma
M14 melanoma = tested on: M14 melanoma
MALME-3M melanoma = tested on: MALME-3M melanoma
MCF7 breast = tested on: MCF7 breast
MDA-MB-231 breast = tested on: MDA-MB-231 breast
MDA-MB-435 = tested on: MDA-MB-435
MDA-N = tested on: MDA-N
MOLT-4 leukemia = tested on: MOLT-4 leukemia
NCI-H226 lung = tested on: NCI-H226 lung
NCI-H23 lung = tested on: NCI-H23 lung
NCI-H460 lung = tested on: NCI-H460 lung
NCI-H522 lung = tested on: NCI-H522 lung
NCI/ADR-RES ovarian = tested on: NCI/ADR-RES ovarian
OVCAR-3 ovarian = tested on: OVCAR-3 ovarian
OVCAR-4 ovarian = tested on: OVCAR-4 ovarian
OVCAR-5 ovarian = tested on: OVCAR-5 ovarian
OVCAR-8 ovarian = tested on: OVCAR-8 ovarian
PC-3 prostate = tested on: PC-3 prostate
RPMI-8226 leukemia = tested on: RPMI-8226 leukemia
RXF 393 renal = tested on: RXF 393 renal
SF-268 CNS = tested on: SF-268 CNS
SF-295 CNS = tested on: SF-295 CNS
SF-539 CNS = tested on: SF-539 CNS
SK-MEL-2 melanoma = tested on: SK-MEL-2 melanoma
SK-MEL-28 melanoma = tested on: SK-MEL-28 melanoma
SK-MEL-5 melanoma = tested on: SK-MEL-5 melanoma
SK-OV-3 ovarian = tested on: SK-OV-3 ovarian
SN12C renal = tested on: SN12C renal
SNB-19 CNS = tested on: SNB-19 CNS
SNB-75 CNS = tested on: SNB-75 CNS
SR leukemia = tested on: SR leukemia
SW-620 colon = tested on: SW-620 colon
T-47D breast = tested on: T-47D breast
TK-10 renal = tested on: TK-10 renal
U251 CNS = tested on: U251 CNS
UACC-257 melanoma = tested on: UACC-257 melanoma
UACC-62 melanoma = tested on: UACC-62 melanoma
UO-31 renal = tested on: UO-31 renal

Compound: Cc1ccccc1C1CC(=O)CC(c2ccccc2C)C12C(=O)NC(=O)NC2=O (centres undefined)
- TGI (786-0 renal): > 100 µM
- TGI (A498 renal): > 100 µM
- TGI (A549 NSCLC): > 100 µM
- TGI (ACHN renal): > 100 µM
- TGI (BT-549 breast): > 100 µM
- TGI (CAKI-1 renal): > 100 µM
- TGI (CCRF-CEM leukemia): > 100 µM
- TGI (COLO 205 colon): > 100 µM
- TGI (DU-145 prostate): > 100 µM
- TGI (EKVX NSCLC): > 100 µM
- TGI (HCC-2998 colon): > 100 µM
- TGI (HCT-116 colon): > 100 µM
- TGI (HCT-15 colon): > 100 µM
- TGI (HL-60(TB) leukemia): > 100 µM
- TGI (HOP-62 NSCLC): > 100 µM
- TGI (HOP-92 NSCLC): > 100 µM
- TGI (HS 578T breast): > 100 µM
- TGI (HT29 colon): > 100 µM
- TGI (IGROV1 ovarian): > 100 µM
- TGI (K-562 leukemia): > 100 µM
- TGI (KM12 colon): > 100 µM
- TGI (LOX IMVI melanoma): > 100 µM
- TGI (M14 melanoma): > 100 µM
- TGI (MALME-3M melanoma): > 100 µM
- TGI (MCF7 breast): > 100 µM
- TGI (MDA-MB-231 breast): > 100 µM
- TGI (MDA-MB-435): > 100 µM
- TGI (MDA-N): > 82.8 µM
- TGI (MOLT-4 leukemia): > 100 µM
- TGI (NCI-H226 lung): > 100 µM
- TGI (NCI-H23 lung): > 100 µM
- TGI (NCI-H460 lung): > 100 µM
- TGI (NCI-H522 lung): > 100 µM
- TGI (NCI/ADR-RES ovarian): > 100 µM
- TGI (OVCAR-3 ovarian): > 100 µM
- TGI (OVCAR-4 ovarian): > 100 µM
- TGI (OVCAR-5 ovarian): > 100 µM
- TGI (OVCAR-8 ovarian): > 100 µM
- TGI (PC-3 prostate): > 100 µM
- TGI (RPMI-8226 leukemia): 97.4 µM
- TGI (RXF 393 renal): > 100 µM
- TGI (SF-268 CNS): > 100 µM
- TGI (SF-295 CNS): > 100 µM
- TGI (SF-539 CNS): > 100 µM
- TGI (SK-MEL-2 melanoma): > 100 µM
- TGI (SK-MEL-28 melanoma): > 100 µM
- TGI (SK-MEL-5 melanoma): > 100 µM
- TGI (SK-OV-3 ovarian): > 100 µM
- TGI (SN12C renal): > 100 µM
- TGI (SNB-19 CNS): > 100 µM
- TGI (SNB-75 CNS): > 100 µM
- TGI (SR leukemia): > 100 µM
- TGI (SW-620 colon): > 100 µM
- TGI (T-47D breast): > 100 µM
- TGI (TK-10 renal): > 100 µM
- TGI (U251 CNS): > 100 µM
- TGI (UACC-257 melanoma): > 100 µM
- TGI (UACC-62 melanoma): > 100 µM
- TGI (UO-31 renal): > 100 µM
